Results: patent US10398715B2, “Methods for increasing brain functionality using 2-fucosyl-lactose” (priority 2012, dated 2019)

Key:
[1] = test system: hippocampal CA3-CA1 synapse; experiment: Paired-pulse test in alert behaving rats; format: in vivo, Sprague Dawley rats; conditions: 1 g/kg p.o., before, 90 min and 180 min after administration, FIG. 3
Protocol: (§1) In this Example, the effect of 2FL on LTP of the hippocampal CA3-CA1 synapse in alert behaving rats was analyzed,
(§2) A total of four male Sprague Dawley rats, each 2 months old weighing from 150-200 g, were placed in individual cages with food and water ad libitum. Rats were kept on a 12/12 hour light/dark cycle with constant ambient temperature (22±1° C.) and humidity (50±7%). All tests were conducted during the light cycle.
(§3) The rats were anesthetized with 0.8%-3% isofluorane (available from AstraZeneca, Madrid, Spain) delivered via a home-made mask. […] was administered from a calibrated Fluotec 5 vaporizer (available from Fluotec-Ohmeda, Tewksbury, Mass.) at a flow rate of 1-4 L/min oxygen. Once anesthetized, the rats were implanted with stimulating and recording electrodes in the hippocampus. […] The recording electrodes were fixed at the site where a reliable monosynaptic field excitatory post-synaptic potential (fEPSP) was recorded. […]
(§4) Control values for input/output curves and paired-pulse facilitation in the four rats were determined. […]

[2] = test system: hippocampal CA3-CA1 synapse; experiment: LTP induction in behaving rats; format: in vivo, Sprague Dawley rats; conditions: after 15 days of daily administration of 1 g/kg, vs control values, FIG. 4
Protocol: as §1, §2, §3
For evoking LTP, each rat was presented with five 200 Hz, 100 ms trains of pulses at a rate of 1/s. […] After, fEPSPs were recorded again for 30 minutes. […]

[3] = test system: Acetylcholinesterase (AChE); experiment: Acetylcholinesterase (AChE) levels in zebrafish embryos; format: in vivo; conditions: zebrafish larvae, 74.73 mg per liter, 24 hours at 26° C.; negative control water; FIG. 5
Protocol: In this Example, the effect of 2FL on Acetylcholinesterase (AChE) in zebrafish embryos was analyzed.
Zebrafish embryos were grown in water for 96 post-fertilization hours, when eclosion occurs. The larvae were then transferred into a 24-well culture dish and incubated for 24 hours at 26° C. in a dilution of 74.73 mg of 2FL per liter. A negative control (water) and a positive control for AChE (100 mg docosahexaenoic acid/liter) were included in the assay.
After incubation, larvae were homogenized and centrifuged. AChE levels and total protein content were determined in the resultant supernatants. Two separate assays were done in triplicates. Specific AChE activity data were referred to control and analyzed by ANOVA. Bonferroni post hoc tests were used for comparisons.

[4] = test system: hippocampal CA3-CA1 synapse; experiment: Hippocampal LTP response in early stressed maternally deprived mice (fEPSP recordings); format: in vivo, C57BL/6 mice; conditions: MS-stressed mice, AIN93G diet supplemented with 2-fucosyllactose (~7 mg/day/mouse) for eight weeks; compared with the control groups, p<0.05; FIG. 1
Protocol: In this Example, the effect of 2-fucosyl-lactose on hippocampal LTP response in early stressed maternally deprived mice was analyzed.
Initially, mice pups were early stressed using a model of maternal separation. Particularly, one day after delivery, C57BL/6 mice pups were sexed and grouped as sham (non-stressed Control group) or maternally separated (MS—stressed group) animals. From day 2 until day 14 after delivery, the MS pups were removed from the dam and kept isolated for a period of 4 hours per day, typically, from 10:00 AM to 2:00 PM, in a thermostatted cup. During the same time period, pups from the sham group were daily handled for a period of five minutes in order to receive the same grade of habituation to a researcher's hands as the MS pups.
Each dam had litters of 4 males and 2 females. Females were allowed to stay with the mother, while males were maternally deprived in order to avoid stressing the dam by removing all of the pups. […]
At the nutritional intervention stage, mice were fed experimental diets for a period of eight weeks. […] The recording electrodes were fixed at the site where a reliable monosynaptic field excitatory post-synaptic potential (fEPSP) was recorded. […]
For evoking LTP, each animal was presented with five 200 Hz, […] trains of pulses at a rate of 1/s. […] After, fEPSPs were recorded again for 30 minutes. […]

[5] = test system: hippocampal CA3-CA1 synapse; experiment: Input/output curves evoked at the hippocampal CA3-CA1 synapse in alert behaving rats; format: in vivo, Sprague Dawley rats; conditions: 1 g/kg p.o. in gelatin, 90 and 180 minutes after administration vs before, FIG. 2
Protocol: as §1, §2, §3, §4

2-fucosyl-lactose [2FL]
paired-pulse facilitation, differences between the three recording sessions [1]: no significant differences | fEPSPs of LTP evoked after HFS of the hippocampal CA3-CA1 synapse [2]: significantly larger fEPSPs than control values | AChE levels compared to the negative control [3]: significant increase | potentiation of field excitatory post-synaptic potentials evoked at the hippocampal CA3-CA1 synapse [4]: larger, longer-lasting potentiation | amplitude of fEPSPs evoked at the CA3-CA1 synapse (input/output curves) [5]: significantly larger
